pEC50: −log10 of the molar value. Where two headings read alike, the source gives them in different places.
Columns and labels:
[1] = Hepatocyte stability assay, mouse hepatocytes; type: in vitro ADME; details: for hepatocyte CLint at 1 uM: male, CD-1, mouse, cryopreserved hepatocytes, pH 7.3, 0.7 million cells per mL, 1 uM compound
Experimental: (§1) Cryopreserved mouse hepatocytes were obtained from a pool of 10 or more male CD-1 mice. Cryopreserved human hepatocytes were obtained from a pool of 10 or more donors of mixed gender. Final hepatocyte density was 0.7 million viable cells per mL and test compound concentration was 1 uM with a maximum of 0.01% DMSO. Cryopreserved hepatocytes were thawed, washed, and resuspended in Krebs-Heinslet buffer (pH 7.3). The reaction was initiated by adding the test compound into cell suspension and incubated for 0, […], 1, 1.5, and 2 h, respectively, at 37° C./5% CO2. The reaction was stopped by adding acetonitrile into the incubation mixture. Samples were then mixed, transferred completely to another 96-well plate, and centrifuged. Supernatants were used for HPLC-MS/MS analysis. […] Peak areas corresponding to the test compound were recorded.

[2] = target: T1, pDNA-PK ser2056 induction in HCT116 spheroids (Homo sapiens, UniProt P78527); assay: Multicellular tumour spheroid + radiation, pDNA-PK inhibition, HCT116; type: cell-based; details: 20 Gy, 20% O2
T1 construct: endogenous in cells; host or cells: HCT116 multicellular tumour spheroids
In short: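 HCT116 spheroids (~0.5 mm) in MEM/10% FBS/10 mM glucose, 20% O2, 37 °C, pre-incubated 1 h with compound (10 or 5 μM down to 3.5 nM), irradiated 20 Gy, incubated 2 h more. Cryosections immunostained for pDNA-PK ser2056; EC50 (μM) for 50% reduction of radiation-induced pDNA-PK.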

[3] = Hepatocyte stability assay, human hepatocytes; type: in vitro ADME; details: for hepatocyte CLint at 1 uM: both sexes, human, cryopreserved hepatocytes, pH 7.3, 0.7 million cells per mL, 1 uM compound
Experimental: as §1

[4] = Microsomal stability assay, mouse liver microsomes; details: for microsomal CLint at 0.1 uM: male, CD-1, mouse, liver microsomes, pH 7.4, Microsomal Stability Mouse Clint, 0.1 mg/mL microsomes, 0.1 uM compound
[5] = Example 7, spheroid, cell line HCT115 [sic], read-out: EC50 (pDNA-PK inhibition, immunohistochemical endpoint)
[6] = Example 9 Study 2, read-out: Spheroid Cell line: HCT116 Immunohistochemical endpoint pDNA-PK inhibition EC50

| SMILES | Hepatocyte Stability (mouse) % rem. 120 min [1] | hepatocyte CLint at 1 uM [1] [µL/min/1e6 cells] | pEC50 [2, 5] | pEC50 [2, 6] | Hepatocyte Stability (human) % rem. 120 min [3] | hepatocyte CLint at 1 uM [3] [µL/min/1e6 cells] | Microsomal Stability (mouse) % rem. 60 min [4] | microsomal CLint at 0.1 uM [4] [µL/min/mg] |
| --- | --- | --- | --- | --- | --- | --- | --- | --- |
| FC(F)c1ccnc2cc(N3CCOCC3)nc(O[C@H]3CC[C@@H](Nc4ncccn4)CC3)c12 [Compound 22, N-((1s,4s)-4-((4-(Difluoromethyl)-7-morpholino-1,6-naphthyridin-5-yl)oxy)cyclohexyl)pyrimidin-2-amine] | F (% remaining = 25-50%) | > 8.2 | 6.00 to 6.30 | 6.00 to 6.30 | E (% remaining = 0-25%) | > 8.2 |  |  |
| CN(C)C(=O)c1cnc(N[C@H]2CC[C@@H](Oc3nc(N4CCOCC4)cc4ncccc34)CC2)nc1 [Compound 53, N,N-dimethyl-2-(((1s,4s)-4-((7-morpholino-1,6-naphthyridin-5-yl)oxy)cyclohexyl)amino)pyrimidine-5-carboxamide] | H (% remaining = 75-100%) | < 8.2 | 6.00 to 6.30 | 6.00 to 6.30 | G (% remaining = 50-75%) | < 8.2 |  |  |
| NS(=O)(=O)c1cnc(N[C@H]2CC[C@@H](Oc3nc(N4CCOCC4)cc4ncccc34)CC2)nc1 [Compound 46, 2-(((1s,4s)-4-((7-morpholino-1,6-naphthyridin-5-yl)oxy)cyclohexyl)amino)pyrimidine-5-sulfonamide] | G (% remaining = 50-75%) | < 8.2 | 6.00 to 6.30 | 6.00 to 6.30 | G (% remaining = 50-75%) | < 8.2 |  |  |
| COc1ccnc(N[C@H]2CC[C@@H](Oc3nc(N4CCOCC4)cc4ncccc34)CC2)n1 [Compound 49, 4-methoxy-N-((1s,4s)-4-((7-morpholino-1,6-naphthyridin-5-yl)oxy)cyclohexyl)pyrimidin-2-amine] | F (% remaining = 25-50%) | > 8.2 | 5.00 to 6.00 | 5.00 to 6.00 | F (% remaining = 25-50%) | > 8.2 |  |  |
| O=C(N[C@H]1CC[C@@H](Oc2nc(N3CCOCC3)cc3ncccc23)CC1)c1cccnc1 [Compound 115, N-((1s,4s)-4-((7-morpholino-1,6-naphthyridin-5-yl)oxy)cyclohexyl)nicotinamide] | F (% remaining = 25-50%) | > 8.2 | 5.00 to 6.00 | 5.00 to 6.00 |  |  | F (% remaining = 25-50%) | > 116 |
| c1cnc2cc(N3CCOCC3)nc(O[C@H]3CC[C@@H](Nc4ncc5[nH]ccc5n4)CC3)c2c1 [Compound 85, N-((1s,4s)-4-((7-Morpholino-1,6-naphthyridin-5-yl)oxy)cyclohexyl)-5H-pyrrolo[3,2-d]pyrimidin-2-amine] | E (% remaining = 0-25%) | > 8.2 | 6.30 to 8.00 | 6.30 to 8.00 | E (% remaining = 0-25%) | > 8.2 |  |  |
| COc1cnc(N[C@H]2CC[C@@H](Oc3nc(N4CCOCC4)cc4ncc(NS(C)(=O)=O)cc34)CC2)nc1 [Compound 203, N-(5-(((1s,4s)-4-((5-methoxypyrimidin-2-yl)amino)cyclohexyl)oxy)-7-morpholino-1,6-naphthyridin-3-yl)methanesulfonamide] | F (% remaining = 25-50%) | < 8.2 | 6.30 to 8.00 | 6.30 to 8.00 | G (% remaining = 50-75%) | < 8.2 |  |  |
| Nc1cnc(N[C@H]2CC[C@@H](Oc3nc(N4CCOCC4)cc4ncccc34)CC2)nc1 [Compound 43, N2-((1s,4s)-4-((7-morpholino-1,6-naphthyridin-5-yl)oxy)cyclohexyl)pyrimidine-2,5-diamine] | F (% remaining = 25-50%) | > 8.2 | 6.30 to 8.00 | 6.30 to 8.00 | G (% remaining = 50-75%) | < 8.2 |  |  |
| c1cnc2cc(N3CCOCC3)nc(O[C@H]3CC[C@@H](Nc4ncnc5ccsc45)CC3)c2c1 [Compound 83, N-((1s,4s)-4-((7-morpholino-1,6-naphthyridin-5-yl)oxy)cyclohexyl)thieno[3,2-d]pyrimidin-4-amine] | F (% remaining = 25-50%) | > 8.2 | 6.30 to 8.00 | 6.30 to 8.00 | E (% remaining = 0-25%) | > 8.2 |  |  |
| c1cnc2cc(N3CCOCC3)nc(O[C@H]3CC[C@@H](Nc4cncnc4)CC3)c2c1 [Compound 28, N-((1s,4s)-4-((7-morpholino-1,6-naphthyridin-5-yl)oxy)cyclohexyl)pyrimidin-5-amine] | E (% remaining = 0-25%) | > 8.2 | 5.00 to 6.00 | 5.00 to 6.00 |  |  | E (% remaining = 0-25%) | > 116 |
| c1cnc2cc(N3CCOCC3)nc(O[C@H]3CC[C@@H](Nc4ncnc5occc45)CC3)c2c1 [Compound 82, N-((1s,4s)-4-((7-morpholino-1,6-naphthyridin-5-yl)oxy)cyclohexyl)furo[2,3-d]pyrimidin-4-amine] | E (% remaining = 0-25%) | > 8.2 | 6.30 to 8.00 | 6.30 to 8.00 | F (% remaining = 25-50%) | > 8.2 |  |  |
| COc1ccc(N[C@H]2CC[C@@H](Oc3nc(N4CCOCC4)cc4ncccc34)CC2)nn1 [Compound 38, 6-methoxy-N-((1s,4s)-4-((7-morpholino-1,6-naphthyridin-5-yl)oxy)cyclohexyl)pyridazin-3-amine] | F (% remaining = 25-50%) | > 8.2 | 5.00 to 6.00 | 5.00 to 6.00 | E (% remaining = 0-25%) | > 8.2 |  |  |
| Cc1nc(N[C@H]2CC[C@@H](Oc3nc(N4CCOCC4)cc4ncccc34)CC2)c2occc2n1 [Compound 81, 2-methyl-N-((1s,4s)-4-((7-morpholino-1,6-naphthyridin-5-yl)oxy)cyclohexyl)furo[3,2-d]pyrimidin-4-amine] | F (% remaining = 25-50%) | > 8.2 | 6.00 to 6.30 | 6.00 to 6.30 | G (% remaining = 50-75%) | < 8.2 |  |  |
| CS(=O)(=O)Nc1cnc2cc(N3CCOCC3)nc(O[C@H]3CC[C@@H](NC(=O)c4ncco4)CC3)c2c1 [Compound 205, N-((1s,4s)-4-((3-(methylsulfonamido)-7-morpholino-1,6-naphthyridin-5-yl)oxy)cyclohexyl)oxazole-2-carboxamide] | H (% remaining = 75-100%) | < 8.2 | 5.00 to 6.00 | 5.00 to 6.00 | H (% remaining = 75-100%) | < 8.2 |  |  |
| NC(=O)c1cnc(N[C@H]2CC[C@@H](Oc3nc(N4CCOCC4)cc4ncccc34)CC2)nc1 [Compound 52, 2-(((1s,4s)-4-((7-morpholino-1,6-naphthyridin-5-yl)oxy)cyclohexyl)amino)pyrimidine-5-carboxamide] | H (% remaining = 75-100%) | < 8.2 | 6.30 to 8.00 | 6.30 to 8.00 | G (% remaining = 50-75%) | < 8.2 |  |  |
| O=C(N[C@H]1CC[C@@H](Oc2nc(N3CCOCC3)cc3ncccc23)CC1)c1nccs1 [Compound 135, N-((1s,4s)-4-((7-morpholino-1,6-naphthyridin-5-yl)oxy)cyclohexyl)thiazole-2-carboxamide] | F (% remaining = 25-50%) | > 8.2 | 5.00 to 6.00 | 5.00 to 6.00 |  |  | E (% remaining = 0-25%) | > 116 |
| O=C(N[C@H]1CC[C@@H](Oc2nc(N3CCOCC3)cc3ncccc23)CC1)c1ccncn1 [Compound 118, N-((1s,4s)-4-((7-morpholino-1,6-naphthyridin-5-yl)oxy)cyclohexyl)pyrimidine-4-carboxamide] | E (% remaining = 0-25%) | > 8.2 | 5.00 to 6.00 | 5.00 to 6.00 |  |  | F (% remaining = 25-50%) | > 116 |

Source: US20240246960A1 (adMare Therapeutics Society, priority 2021, published 2024)
